Three compounds from patent publication US9303025B2, “Apoptosis-inducing agents for the treatment of cancer and immune and autoimmune diseases” (AbbVie Inc., priority 2008, dated 2016) can be followed below.

For this test, the target named is GST-Bcl-2 (Homo sapiens (Human), UniProt P10415). In words: Time Resolved-Fluorescence Resonance Energy Transfer (TR-FRET) Bcl-2 binding assay. To be noted: GST-Bcl-2 1 nM, F-Bak peptide probe 100 nM, Tb-anti-GST antibody 1 nM; 3 hours at room temperature; Ki by Wang's equation.
Chain of GST-Bcl-2 (P10415 whole entry): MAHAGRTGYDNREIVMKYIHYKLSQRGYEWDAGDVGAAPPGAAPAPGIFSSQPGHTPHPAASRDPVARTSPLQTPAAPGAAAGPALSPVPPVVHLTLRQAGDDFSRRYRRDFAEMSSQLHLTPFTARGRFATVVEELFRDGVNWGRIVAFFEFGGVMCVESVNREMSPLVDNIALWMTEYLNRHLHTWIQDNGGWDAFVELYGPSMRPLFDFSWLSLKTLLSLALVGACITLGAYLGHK
Procedure: Tb-anti-GST antibody was purchased from Invitrogen (Catalog No. PV4216).
Representative compounds were serially diluted in dimethyl sulfoxide (DMSO) starting at 50 μM (2× starting concentration; 10% DMSO) and 10 μL were transferred into a 384-well plate. The samples are then mixed on a shaker for 1 minute and incubated for an additional 3 hours at room temperature. For each assay, the probed antibody and protein/probe/antibody were included on each assay plate as negative and positive controls, respectively. Fluorescence was measured on the Envision (Perkin Elmer) using a 340/35 nm excitation filter and 520/525 (F-Bak peptide) and 495/510 nm (Tb-labeled anti-Histidine antibody) emission filters.
The samples were then mixed on a shaker for 1 minute and incubated for an additional 3 hours at room temperature. For each assay, the probe/antibody and protein/probe/antibody were included on each assay plate as negative and positive controls, respectively. Fluorescence was measured on the Envision (Perkin Elmer) using a 340/35 nm excitation filter and 520/525 (F-Bak peptide) and 495/510 nm (Tb-labeled anti-Histidine antibody) emission filters.
The inhibition constant (Ki) is the dissociation constant of an enzyme-inhibitor complex or a protein/small molecule complex, wherein the small molecule is inhibiting binding of one protein to another protein. So a large Ki value indicates a low binding affinity and a small Ki value indicates a high binding affinity.
Compound “4-(4-{[2-(4-chlorophenyl)-4,4-dimethylcyclohex-1-en-1-yl]methyl}piperazin-1-yl)-N-[(4-{[3-(dimethylamino)propyl]amino}-3-nitrophenyl]-2-(3-fluorophenoxy)benzamide [Example 138]” showed a Ki of 0.016 nM.
In turn, `CC1(C)CCC(CN2CCN(c3ccc(C(=O)NS(=O)(=O)c4ccc(NCCCN5CCCC5)c([N+](=O)[O-])c4)c(Oc4cccc(Cl)c4F)c3)CC2)=C(c2ccc(Cl)cc2)C1` [Example 149, 2-(3-chloro-2-fluorophenoxy)-4-(4-{[2-(4-chlorophenyl)-4,4-dimethylcyclohex-1-en-1-yl]methyl}piperazin-1-yl)-N-({3-nitro-4-[(3-pyrrolidin-1-ylpropyl)amino]phenyl}sulfonyl)benzamide] came in with a Ki of 0.03 nM.
Compound `CC1(C)CCC(CN2CCN(c3ccc(C(=O)NS(=O)(=O)c4ccc(NCC5CCOCC5)c([N+](=O)[O-])c4)c(Oc4cccc5c4CC(=O)N5)c3)CC2)=C(c2ccc(Cl)cc2)C1` [Example 268, 4-(4-{[2-(4-chlorophenyl)-4,4-dimethylcyclohex-1-en-1-yl]methyl}piperazin-1-yl)-N-({3-nitro-4-[(tetrahydro-2H-pyran-4-ylmethyl)amino]phenyl}sulfonyl)-2-[(2-oxo-2,3-dihydro-1H-indol-4-yl)oxy]benzamide] came in with a Ki of 0.042 nM. The Ki values of the last two compounds are within 1.5-fold of each other.
